Measurements: patent US20240189408A1, “COMPOSITIONS AND METHODS FOR REDUCING METHANE EMISSIONS IN RUMINANT POPULATIONS” (Arkea Bio Corp., priority 2022, published 2024)
Like-named read-outs stand apart in the source and are kept apart here.

Columns and labels:
[1] = system: methane production in ruminants; details: cited from earlier work
rumen methanogens = details: cited from earlier work
[2] = 3-NOP to adsorbent ratio study; format: physicochemical; details: 24 hr, HPLC
Description: Optimal loading of 3-NOP onto adsorbents was determined by varying ratios of 3-NOP to adsorbent. 3-NOP and adsorbent were speed mixed at 2000 rpm for 1 min at the following ratios by weight: 1:1.5, 1:2, 1:2.5. The adsorbed 3-NOP powder mixture was then placed in distilled water at 1% 3-NOP loading. The solution was allowed to equilibrate for 24 hr and then an aliquot was taken for HPLC to determine the reduction in 3-NOP concentration.

[3] = LNP size and polydispersity by DLS (Malvern Panalytical); format: physicochemical; details: mRNA LNPs of Table 18; for PDI: LNP polydispersity; for Z-avg.: LNP size
Description: (§1) To prepare lipid nanoparticles (LNPs), the mRNA stocks were thawed on ice. Nucleic acid concentrations were validated by absorbance at 260 nm using a NanoDrop. The mRNAs were then diluted to a final concentration of 0.35 mg/mL mRNA in Precision Nanosystem's dilution buffer. 10 mL of the dilute mRNAs were loaded into separate Luer lock syringes and all bubbles were removed by gentle tapping. A NanoAssemblr Ignite NxGen Cartridge was loaded into the cartridge slot of the Ignite instrument (FIG. 8A, 801) and one mRNA syringe was attached to the aqueous inlet of the cartridge. 3.3 mL of Genvoy-ILM reagent was loaded into a separate Luer lock syringes and all bubbles were removed by gentle tapping. The Genvoy-ILM syringe was then attached to the organic inlet of the cartridge. LNPs were then generated and collected into a 15 mL conical tube. The process was repeated for the remaining two mRNAs and for a buffer only LNP control (empty). Immediately after LNPs were generated, the samples were loaded into 10K dialysis cartridges, submerged into 1×DPBS (Ca^2+ and Mg^2+-free) to reduce the ethanol concentration to <0.5%. After dialysis the LNPs were recovered from the dialysis cartridges and sterile filtered at 0.2 um. Size and polydispersity (FIG. 8A, 802) were measured using a Malvern Panalytical DLS by diluting 40 uL of LNPs into 360 uL of 1×DPBS. […] Encapsulation efficiency was measured using a RiboGreen assay following Precision Nanosystems recommended protocol using a BioTek Synergy H1 Plate Reader. The resultant encapsulation efficiencies are shown in Table 14, with an average of ˜85%.
(§2) To prepare lipid nanoparticles (LNPs), the mRNA stocks were thawed on ice. Nucleic acid concentrations were validated by absorbance at 260 nm using a NanoDrop. The mRNAs were then diluted to a final concentration of 0.35 mg/mL mRNA in Precision Nanosystem's dilution buffer. 10 mL of the dilute mRNAs were loaded into separate Luer lock syringes and all bubbles were removed by gentle tapping. A NanoAssemblr Ignite NxGen Cartridge was loaded into the cartridge slot of the Ignite instrument and one mRNA syringe was attached to the aqueous inlet of the cartridge. 3.3 mL of Genvoy-ILM reagent was loaded into a separate Luer lock syringes and all bubbles were removed by gentle tapping. The Genvoy-LM syringe was then attached to the organic inlet of the cartridge. LNPs were then generated and collected into a 15 mL conical tube. The process was repeated for the remaining mRNAs and for a buffer only LNP control (empty). Immediately after LNPs were generated, the samples were loaded into 10K dialysis cartridges, submerged into Ix DPBS (Ca^2+ and Mg^2+-free) to reduce the ethanol concentration to <0.5%. After dialysis the LNPs were recovered from the dialysis cartridges and sterile filtered at 0.2 um. Size and polydispersity (FIG. 12 and FIG. 13) were measured using a Malvern Panalytical DLS by diluting 40 uL of LNPs into 360 uL of 1×DPBS. […] Encapsulation efficiency was measured using a RiboGreen assay following Precision Nanosystems recommended protocol using a BioTek Synergy H1 Plate Reader. The resultant encapsulation efficiencies are shown in Table 18, with an average of ˜60%.
(§3) To prepare lipid nanoparticles (LNPs), the mRNA stocks are thawed on ice. Nucleic acid concentrations are validated by absorbance at 260 nm using a NanoDrop. The mRNAs are then diluted to a final concentration of 0.35 mg/mL mRNA in Precision Nanosystem's dilution buffer. 10 mL of the dilute mRNAs are loaded into separate Luer lock syringes and all bubbles are removed by gentle tapping. A NanoAssemblr Ignite NxGen Cartridge is loaded into the cartridge slot of the Ignite instrument and one mRNA syringe is attached to the aqueous inlet of the cartridge. 3.3 mL of Genvoy-ILM reagent is loaded into a separate Luer lock syringes and all bubbles are removed by gentle tapping. The Genvoy-ILM syringe is then attached to the organic inlet of the cartridge. […]

[4] = LNP encapsulation efficiency, RiboGreen assay; format: physicochemical; details: mRNA LNPs of Table 18
Description: as §1, §2, §3

[5] = 3-NOP:Adsorbent 1:1.5, distilled water at 1% 3-NOP loading
[6] = 3-NOP:Adsorbent 1:2, distilled water at 1% 3-NOP loading
[7] = 3-NOP:Adsorbent 1:2.5, distilled water at 1% 3-NOP loading
[8] = beef cattle, fed at […] of DM intake

O=[N+]([O-])CCO [2-nitroethanol]
Addition amount; maximum methane suppression amount ([1]; 10 mmol/L): 96.7% (NEOH),

CC(CO)[N+](=O)[O-] (stereo not drawn) [2-nitropropanol]
lowering of CH4 production (rumen methanogens; steers): 37% | Addition amount; maximum methane suppression amount ([1]; 10 mmol/L): 41.7% (NPOH)

N=C(N)NCCC[C@H](N)C(=O)O [Arginine]
Average Integrated Area of 3-NOP in solution [2, 5]: 2406.0 | Average Integrated Area of 3-NOP in solution [2, 6]: 2372.8 | Average Integrated Area of 3-NOP in solution [2, 7]: 2435.2

ClCBr [BCM, bromochloromethane]
toxicity or residues in meat (rumen methanogens; steers fed grain-based diets): no signs of toxicity or residues in meat

O=C(O)/C=C/c1ccc(O)c(O)c1 [Caffeic acid]
Addition amount; maximum methane suppression amount ([1]; 12 mM): 12 mM, Caffeic acid; 37.58%;

N[C@@H](CCC(=O)O)C(=O)O [Glutamic acid]
Average Integrated Area of 3-NOP in solution [2, 5]: 2445.9 | Average Integrated Area of 3-NOP in solution [2, 6]: 2452.5 | Average Integrated Area of 3-NOP in solution [2, 7]: 2446.3

O=C(O)CC(O)C(=O)O (stereo not drawn) [Malate]
decrease of CH4 production (rumen methanogens; [8]): 16% | reduction of CH4 per unit of DM intake (rumen methanogens; [8]): 9%

O=[N+]([O-])O [Nitrate]
Addition amount; maximum methane suppression amount ([1]; 5 mM (Liu et al., 2017)): 5 mM 43.26% | Addition amount; maximum methane suppression amount ([1]; 5 mmol/L (Wu et al., 2019)): 5 mmol/L; 32.92% | Addition amount; maximum methane suppression amount ([1]; 20 mg/g dry matter (Alvarez-Hess et al., 2019)): 20 mg/g dry matter; 21%

ClC(Cl)Cl [chloroform]
duration of substantial inhibition of methanogenesis (rumen methanogens; drenching to cattle): up to 32 days

CC[C@@]1([C@@H]2O[C@@H]([C@H]3O[C@@](O)(CO)[C@H](C)C[C@@H]3C)C[C@@H]2C)CC[C@H]([C@]2(C)CC[C@]3(C[C@H](O)[C@@H](C)[C@@H]([C@@H](C)[C@@H](OC)[C@H](C)C(=O)O)O3)O2)O1 [monensin]
CH4 production (rumen methanogens; tropical cattle, 60 mg/day/cow): did not lower CH4 production | decrease of CH4 production (rumen methanogens; tropical cattle, 250 mg/day/cow, DM intake lowered): about 30% | CH4 suppression ([1]; 10-15 ppm): no CH4 suppression was observed | lowering of CH4 production (g/kg DM intake) ([1]; fed at 24-35 mg/kg diet): up to 10%

O=C(O)/C=C/c1ccc(O)cc1 [p-coumaric acid]
Addition amount; maximum methane suppression amount ([1]; 12 mM): p-coumaric acid; 28.33%

Oc1ccc(C=Cc2cc(O)cc(O)c2)cc1 [resveratrol]
Addition amount; maximum methane suppression amount ([1]; 25 mg, high-concentrate diets): high-concentrate diets; 41% | Addition amount; maximum methane suppression amount ([1]; 25 mg, high-forage diets): 25 mg, high-forage diets; 60%;

B1: ARK012: mRNA: SP + WP_012956721.1 + STOP; SEQ ID NO: 16686 (nucleic acid)
chain: ATGTTCGTGTTCCTCGTGCTCCTGCCCCTCGTCTCCAGCCAGTGCGTGGGGTCCATAGGGGCTGCTTCTATGGAGTTCTGTTTTGATGTTTTCAAGGAACTGAAGGTTCACCATGCTAACGAGAACATCTTTTACTGTCCAATAGCCATCATGAGTGCGCTTGCTATGGTTTATTTGGGTGCAAAAGATTCTACTCGCACTCAGATTAATAAGGTCGTTAGATTCGACAAGCTTCCAGGGTTTGGAGACAGTATTGAGGCCCAATGTGGAACGTCAGTCAACGTCCATTCTTCTCTGCGGGACATTCTCAACCAAATAACGAAGCCAAACGACGTGTATTCCTTCTCACTCGCGTCACGGCTGTATGCTGAAGAAAGGTATCCTATCTTGCCAGAATATCTCCAGTGCGTCAAGGAGTTGTATCGAGGCGGACTGGAACCGATCAACTTTCAGACTGCAGCCGACCAGGCCCGCGAACTGATCAACAGCTGGGTCGAGTCTCAGACCAATGGGATCATACGCAATGTGTTGCAACCGAGTAGTGTCGACTCTCAGACGGCTATGGTCTTGGTGAACGCTATAGTCTTCAAAGGTCTGTGGGAGAAGACCTTCAAGGATGAAGACACACAAGCGATGCCATTCAGAGTCACCGAACAAGAAAGCAAACCCGTCCAAATGATGTACCAAATTGGGCTTTTTCGGGTGGCCTCTATGGCCTCTGAGAAAATGAAAATATTGGAACTGCCCTTCGCCAGCGGCACAATGAGTATGTTGGTCCTTCTTCCAGATGAAGTCTCAGGTCTCGAACAGCTTGAGTCTATCATTAACTTTGAGAAACTCACTGAATGGACTTCTTCCAATGTGATGGAAGAACGAAAAATCAAAGTCTACCTGCCCCGAATGAAGATGGAAGAGAAATATAATTTGACATCAGTTCTGATGGCCATGGGAATCACAGACGTGTTTTCATCCTCTGCGAATCTGTCTGGCATATCTTCCGCAGAATCTCTCAAGATCAGTCAAGCCGTCCACGCGGCCCATGCTGAGATAAATGAGGCGGGCAGAGAGGTGGTGGGGTCCGCCGAAGCTGGAGTCGACGCAGCTTCTGTCAGTGAAGAATTTAGGGCCGATCATCCTTTCCTGTTCTGCATAAAGCACATAGCTACGAACGCTGTGCTTTTCTTTGGCAGATGCGTTTCTCCACCCTGGTACATCTGGCTGGGCTTCATCGCAGGACTGATCGCCATCGTCATGGTCACCATAATGCTCTGTTGCATGACCTCCTGCTGTAGCTGCCTGAAAGGCTGTTGCAGCTGCGGGAGCTGCTGCAAATTCGACGAAGACGATAGCGAACCTGTGCTCAAAGGGGTGAAGTTGCATTACACATAGTGA
modifications: listed as DNA
PDI [3]: 0.100 | Z-avg. [3]: 78.82 nm·days | Encapsulation efficiency [4]: 49%

B2: ARK013: mRNA: SP + mru0143 + STOP; SEQ ID NO: 16687 (nucleic acid)
chain: ATGTTCGTGTTCCTCGTGCTCCTGCCCCTCGTCTCCAGCCAGTGCGTGTACCTCATGACACTCCCCCTGGACGGACTCGGGCACCCCTTCCCCCTGCCATGA
modifications: listed as DNA, chemistry not fully specified
PDI [3]: 0.1841 | Z-avg. [3]: 78.82 nm·days | Encapsulation efficiency [4]: 60%

B3: ARK002: mRNA: SP + WP_012956721.1 (Methanobrevibacter ruminantium) + TM/C; SEQ ID NO: 16677 (nucleic acid)
chain: ATGTTCGTGTTCCTCGTGCTCCTGCCCCTCGTCTCCAGCCAGTGCGTGTACCTCATGACACTCCCCCTGGACGGACTCGGGCACCCCTTCCCCCTGCCACCCTGGTACATCTGGCTGGGCTTCATCGCAGGACTGATCGCCATCGTCATGGTCACCATAATGCTCTGTTGCATGACCTCCTGCTGTAGCTGCCTGAAAGGCTGTTGCAGCTGCGGGAGCTGCTGCAAATTCGACGAAGACGATAGCGAACCTGTGCTCAAAGGGGTGAAGTTGCATTACACATAGTGA
modifications: listed as DNA
PDI [3]: 0.108 | Z-avg. [3]: 78.82 nm·days | Encapsulation efficiency [4]: 51%

B4: ARK001: mRNA: SP + WP_004031278.1 (Methanobacterium formicicum) + TM/C; SEQ ID NO: 16676 (nucleic acid)
chain: ATGTTCGTGTTCCTCGTGCTCCTGCCCCTCGTCTCCAGCCAGTGCGTGTACCTCATGACACTGAGCCTGCCAGGGTTCGCACATCCCTTCGCACTCCCCCCCTGGTACATCTGGCTGGGCTTCATCGCAGGACTGATCGCCATCGTCATGGTCACCATAATGCTCTGTTGCATGACCTCCTGCTGTAGCTGCCTGAAAGGCTGTTGCAGCTGCGGGAGCTGCTGCAAATTCGACGAAGACGATAGCGAACCTGTGCTCAAAGGGGTGAAGTTGCATTACACATAGTGA
modifications: listed as DNA
PDI [3]: 0.086 | Z-avg. [3]: 78.82 nm·days | Encapsulation efficiency [4]: 51%
